The target in test [1] is T1, uPA1–48:uPAR complexes binding to vitronectin (Homo sapiens, UniProt Q03405).
T1 construct: sUPAR, soluble truncated form of the urokinase receptor; made in house; host or cells: suPAR: baculovirus-infected Sf9 cells; uPA1-48: recombinant yeast; vitronectin: purified from human plasma
In words: Vitronectin binding assay (ELISA). To be noted: 20 nM biotinylated suPAR, 20 nM uPA1–48. Here is the method:
Vitronectin was purified from human plasma by the method of Yatohgo et al, Cello Struct.and Funct. 13: 281–292 (1988). Purified vitronectin was diluted to 20 μg/ml in PBS containing 1 mM CaCl2 and 0.5 mM MgCl2, dispensed at 50 μl/well into Immulon II wells (Dynatech, Chantilly, Va.), incubated overnight at 4° C. and washed with PBS/BSA. Biotinylated sUPAR was diluted to 20 nM in PBS/BSA, incubated with or without test ligand for 30 minutes at room temperature (22° C.), dispensed at 100 μl/well and incubated for 90 minutes. Wells were then washed and horseradish peroxidase (HRP)-conjugated streptavidin was added at 0.4 μg/ml in PBS/2% BSA for 1 hour followed by washing and addition of 100 μl/well TMB substrate. The color development was stopped with 100 μl of 0.8N H2SO4 and the absorbance at 450 nm measured in a 96 well plate reader (Dynatech, Chantilly, Va.). Antagonistic effects of test ligands were measured as described above except the ligands were incubated with 20 nM biotinylated suPAR in the presence of 20 nM uPA1–48.
In order to analyze the effects of the various peptide ligands on the uPAR:vitronectin interaction, we developed an in vitro ELISA based assay for this interaction, in which biotinylated suPAR and uPA1–48 bind to immobilized, urea purified vitronectin, and the bound sUPAR is detected with HRP conjugated streptavidin. Under the conditions of the assay binding of biotinylated uPAR to vitronectin is strictly dependent on uPA1–48, as shown in FIG. 1.

Test [2] deals with T2, suPAR (Homo sapiens, UniProt Q03405).
T2 construct: sUPAR, soluble truncated form of the urokinase receptor; made in house; host or cells: baculovirus-infected Sf9 insect cells
T2 sequence (Q03405 23-305 limits assumed): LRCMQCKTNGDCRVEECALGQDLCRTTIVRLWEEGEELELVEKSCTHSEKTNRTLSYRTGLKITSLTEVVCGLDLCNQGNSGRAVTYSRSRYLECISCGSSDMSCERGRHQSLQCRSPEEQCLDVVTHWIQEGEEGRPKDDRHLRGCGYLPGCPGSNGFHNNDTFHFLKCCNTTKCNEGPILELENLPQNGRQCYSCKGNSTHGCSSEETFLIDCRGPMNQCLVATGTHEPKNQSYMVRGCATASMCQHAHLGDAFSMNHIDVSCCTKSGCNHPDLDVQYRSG
Nature of the test: suPAR binding assay (competition for uPA1–48 binding). To be noted: synthetic peptide. On the procedure:
Twenty-eight independent bacteriophage were isolated and the random peptide encoding DNA segments sequenced. […] This is in contrast to previous results of affinity selection on uPAR alone, where the majority of selected bacteriophage bound with substantial yield as described in Goodson et al, Proc.Natl.Acad.Sci. USA 91: 7129–7133 (1994). The yields of these four bacteriophage were determined on suPAR in the presence and absence of uPA1–48. In addition, the encoded peptides were synthesized and tested as competitors in a suPAR binding assay as described in Stratton-Thomas et al, Prot.Eng. 8: 463–470 (1995), and Kaufman et al Anal.Biochem. 211: 261–266 (1993).

Test [3] concerns the target T3, sUPAR domain 2–3 (D23) (Homo sapiens, UniProt Q03405).
T3 construct: domains 2 and 3 (amino acids 93–313); made in house; host or cells: baculovirus infected Sf9 insect cells
In words: Bacteriophage binding to sUPAR domain 2/3. The following applies: phage-displayed peptide. Here is the method:
FIG. 5. Bacteriophage binding to sUPAR domain 2/3. Phage were added to wells containing sUPAR domain 2/3 immobilized by its epitope tag via protein G and monoclonal antibody to the epitope tag. Wells containing protein G and antibody but no domain 2/3 were included to determine nonspecific phage binding. Urea-eluted phage and the input stocks were titered by plaque formation assay. Results were single point determinations calculated as a percent of the input titer and were repeated in three separate experiments.
It was also shown by the inventors that bacteriophage bound to sUPAR domain 2–3fragment. Protein G, 100μl, 1 mg/ml in 50 mM Na2CO3, pH9.6, was added to MaxiSorp wells, incubated overnight at 4° C. and then washed with PBS/BSA. Fifty μl of monoclonal antibody to the epitope tag EYMPME (SEQ ID NO: 18) was added at 1 mg/ml in PBS/BSA and incubated for 2 hours at room temperature. The wells were washed, recombinant sUPAR domain 2–3 (1.7 μM in PBS/BSA) was added and incubated for 1.5 hours at room temperature. The wells were washed prior to the addition of bacteriophage (approximately 10^8 pfu), and then treated as described in the previous section for binding to suPAR.

Test [4] deals with T4, uPAR (Homo sapiens, UniProt Q03405).
T4 construct: sUPAR, soluble truncated form of the urokinase receptor; made in house; host or cells: baculovirus-infected Sf9 insect cells
T4 sequence (Q03405 whole entry, looked up, the tested form may be a part): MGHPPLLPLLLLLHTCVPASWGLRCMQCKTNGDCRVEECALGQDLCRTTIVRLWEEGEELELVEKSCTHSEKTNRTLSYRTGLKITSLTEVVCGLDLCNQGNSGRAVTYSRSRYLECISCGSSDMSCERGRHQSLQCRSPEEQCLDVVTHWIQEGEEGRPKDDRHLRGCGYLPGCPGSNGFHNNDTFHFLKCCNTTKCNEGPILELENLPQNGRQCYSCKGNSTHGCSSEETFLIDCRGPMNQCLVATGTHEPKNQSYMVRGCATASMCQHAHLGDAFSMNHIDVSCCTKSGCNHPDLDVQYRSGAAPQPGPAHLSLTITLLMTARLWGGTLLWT
In words: IC 50 (uM)^2. Here is the method:
Table printed on a drawing sheet, FIG. 6
Head of the field: IC 50 (uM)^2
The patent's description of the figure: FIG 6: Table. The table of FIG 6 depicts the sequences (SEQ ID NOS:12–17), phage yields, and IC50s in uPAR binding assays for selected phage peptides. Legend: 1. Individual phage were incubated with biotinylated suPAR with and without 10 μM uPA1–48 on streptavidin coated wells as described herein. The background yields of all phage without SuPAR in the wells ranged from 0.002–0.025%. Errors in yield are in the range 50%. 2. Apparent inhibition constant of the synthetic peptide in the uPAR receptor binding assay; errors are in the range of 20%. 3. NT=not determined because of peptide insolubility. 4. Clone 20 and 13–32 peptides were as described previously.
First copying reader's note: The head is printed shifted: 'Phage Yield' covers the -1-48 and +1-48 columns and 'IC 50 (uM)' belongs to the last column; the raised marks 1-4 refer to a legend that is not printed on the sheet.
Where the first naming reader finds the target: description_of_the_figure: IC50s in uPAR binding assays for selected phage peptides

The target in test [5] is T2, suPAR. In words: SuPAR:1-anilino-8-napthalenesulfonate (ANS) fluorescence. The format is binding. The following applies: 2 μM sUPAR, 10 μM ANS, 0 to 20 μM competitor. Here is the method:
Determination of the effect of various peptide ligands on sUPAR/ANS fluorescence was performed following a procedure similar to that of Ploug et al, Biochem. 33: 8991–8997 (1994). Fluorescence emission spectra of sUPAR/ANS solutions with or without competitors were obtained using an Hitachi F-4500 fluorescence spectrophotometer with an excitation wavelength of 386 nm, 5-nm band-pass excitation and emission slits, and a 10 mm path length quartz cuvette. The emission spectra from 400 to 600 nm were recorded. For competition measurements, dilutions of a stock sUPAR/ANS solution were made to give individual 0.5 ml aliquots with a final concentration of 2 μM sUPAR, 10 μM ANS, and 0 to 20 μM competitor in PBS containing 10% DMSO. Fluorescence measurements were made after a one hour incubation at 25° C.

Test [6] has as its system uPAR mediated adhesion of stimulated U937 cells. In words: Adhesion of stimulated U937 cells to vitronectin. The format is cell-based. The source says: Previous results had shown that vitronectin binding by uPAR correlated with cell adhesion of stimulated U937 cells as described in Wei et al, J. Biol. Chem. 269: 32380–32388 (1994). It was found also that clone 7 peptide could block uPAR mediated adhesion of these cells, whereas the scrambled version of the same peptide had no effect.

Test [7] addresses soluble uPAR (Homo sapiens, UniProt Q03405).
Experimental: Streptavidin, 100 μl (0.1 mg/ml) in 50 mM Na2CO3, pH 9.6, was added to MaxiSorp wells (Nunc), incubated overnight at 4 C, and then washed with PBS/BSA. Biotinylated sUPAR (25 nM in PBS/BSA) was added to the wells and incubated for 2 hours at room temperature prior to washing. Competitive peptide inhibitors were added to the wells immediately prior to addition of the bacteriophage. The wells were incubated for one hour at room temperature, then washed and bound bacteriophage eluted with 6M urea in 0.1N HCl, pH 2.5. After 15 minutes, the urea eluate was brought to neutral pH by addition of 2M Tris base and the bacteriophage titers of input stocks and elutions measured by plaque formation assay. Results were expressed as the percent of input bacteriophage which bind to the wells. Alternatively, the amount of bacteriophage was determined in an ELISA where phage were preincubated with HRP-conjugated anti-M13 antibody for 30 minutes at room temperature before dispensing into wells prepared as above and incubated for one hour at room temperature. The final anti-M13 conjugate dilution was 1:4000. After washing, TMB substrate (100 μl/well) was added and color development was stopped with 0.8N H2SO4 (100 μl/well). The absorbance at 450 nm was then measured in a 96 well plate reader.
In a uPAR binding assay, the following analogs were tested in a competition with phage displaying either peptide 25 or peptide 9. The analogs comprise both natural and unnatural amino acids.
The analogs were tested for their ability to compete with phage displaying either peptide 9 or peptide 25. […] Approximately 10^8 plaque forming units of the phage were used in the assay.
In test [8] the test system is nontransfected 293 cells. In words: Adhesion of nontransfected 293 cells to fibronectin or collagen. The format is cell-based. The following applies: recombinant soluble uPAR added, dose dependent. The source says: To explore whether uPAR binds to integrins, nontransfected 293 cells were allowed to adhere to fibronectin or collagen in the presence of recombinant soluble uPAR (suPAR).

In test [9] the target is T5, uPA1–48:suPAR complex (Homo sapiens, UniProt Q03405).
T5 construct: sUPAR, soluble truncated form of the urokinase receptor; made in house; host or cells: suPAR: baculovirus-infected Sf9 cells; uPA1-48: recombinant yeast
T5 sequence (Q03405 23-305, other chains not shown): as the sequence (Q03405 23-305 limits assumed) above
In words: Bacteriophage 7 and 18 binding to uPA1–48:suPAR complex in presence of vitronectin. To be noted: clone 7 and 18 bacteriophage. On the procedure: The ability of the various bacteriophage derived peptides to affect binding of uPA1–48:uPAR complexes to vitronectin was assessed in the ELISA assay. Two classes of peptides were effective antagonists in this assay. […] None of the peptides when tested alone increased the binding of biotinylated suPAR to vitronectin. […] In order to test whether the clone 7 and 18 peptides bound directly at the vitronectin binding site on uPAR, and inhibited vitronectin binding by uPAR:uPA1–48 by direct competition for that site, the inventors examined the effects of vitronectin on the binding of these bacteriophage. Vitronectin reduced bacteriophage binding to the uPA1–48:suPAR complex by 5–10 fold, consistent with the hypothesis that these peptides mimic vitronectin as a uPAR ligand.

“Also recorded” adds a separate entry of the source. Like-named read-outs stand apart in the source and are kept apart here. Ends that are not written are not given here.

T1 sequence (Q03405 23-305 limits assumed, one chain of several): as the sequence (Q03405 23-305 limits assumed) above
T3 sequence (Q03405 115-335): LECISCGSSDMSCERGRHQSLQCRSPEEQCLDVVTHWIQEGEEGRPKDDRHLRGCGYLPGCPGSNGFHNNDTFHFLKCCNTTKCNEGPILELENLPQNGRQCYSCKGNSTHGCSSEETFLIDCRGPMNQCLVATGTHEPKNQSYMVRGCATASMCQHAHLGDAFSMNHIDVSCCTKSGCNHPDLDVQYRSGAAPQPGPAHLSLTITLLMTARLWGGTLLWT
Chain of soluble uPAR (Q03405 23-305 limits assumed): as the sequence (Q03405 23-305 limits assumed) above

For “AE PMPHSLNFSQYAWYT [analog of clone 20 peptide, reference compound]”, in test [1], the “effect on binding of uPA1–48:uPAR complexes to vitronectin” value (“effect on binding” for short) is listed as “did not affect binding to vitronectin”. Further, the “competition for uPA1–48 binding to sUPAR / receptor binding activity (in words)” value in [2] is recorded as “greatly reduced receptor binding activity”.
For orientation: IC50 means the concentration needed to halve the response being measured. Read a high IC50 as lower potency. In the case of AELDLSTFYDIQYLLRT-NH2 [peptide 18], the “bacteriophage binding to immobilized D23 versus sUPAR” value in test [3] was “intermediate degree of binding to D23”. The “effect on binding” value in test [1] is listed as “blocks binding of complexes to vitronectin”; in test [1] (listed as clone 18), “inhibit complex binding”. In addition, the IC50 in test [4] was found to be 10 µM. Besides, the “competition for uPA1–48 binding to sUPAR / receptor binding activity (in words)” value in test [2] is listed as “greatly reduced competition for uPA1–48 binding”.
Take AEPVYQYELDSYLRSYY-NH2 [peptide 7]: in [5], the “effect on ANS fluorescence enhancement in the presence of uPAR” value is listed as “reduced fluorescence in a dose dependent manner”. Further, the “bacteriophage binding to immobilized D23 versus sUPAR” value in [3] is listed as “intermediate degree of binding to D23”. For the same substance, the “reduced binding to D23 versus suPAR” value in test [3] was “about 50 fold”. The “effect on binding” value in test [1] was “inhibits complex binding to vitronectin”; in test [1] (listed as clone 7), “inhibit complex binding”. The substance also had a half-maximal inhibitory concentration (IC50) in [4] of 10 µM. Further, in test [2], the “competition for uPA1–48 binding to sUPAR / receptor binding activity (in words)” value was “greatly reduced competition for uPA1–48 binding”. For the same substance, the “block of uPAR mediated adhesion of stimulated U937 cells to vitronectin” value is recorded as “effective blocker” in test [6] (listed as clone 7) and “could block” in [6] (listed as clone 7 peptide).
Turning to CLNGGTAVSNKYFSNLHWC [13-32^4], in test [4], the IC50 worked out at 0.25 µM.
On to H-AEFFKLGPNGYVYLHSA-NH2 [peptide 9], for which, in [3], the “bacteriophage binding to immobilized D23 versus sUPAR” value is “bind equivalently to the D23 fragment and full-length receptor”. The “% Inhibition 2.5 uM” value in test [7] (2500.0) is on record as 59%. In test [7] (5000.0), the “% Inhibition 5 uM” value came out at 71%.
In test [4], H-AEPMPHSLNFSQYLWYT-NH2 [20^4] returned an IC50 of 0.01 µM.
Same read-out and setting: for H-AESTYHHLSLGYMYTLN-NH2 [compound 25] the value was > 10 µM.
Turning to “VEYRDAYSYPQYLSYLE [scrambled version of clone 7, same amino acids as clone 7, but in a different order, reference compound]”, in [1], the “effect on binding” value is recorded as “did not; also recorded: does not”. Further, the “block of uPAR mediated adhesion of stimulated U937 cells to vitronectin” value in test [6] was “no effect”.
On to “suPAR: soluble recombinant human urokinase receptor from baculovirus-infected Sf9 insect cells”, for which the “adhesion of nontransfected 293 cells to fibronectin and collagen” value in test [8] is on record as “inhibited adhesion”.
Turning to “uPA13–32: amino acids 13–32 of human urokinase with Cys19 converted to Ala (CLNGGTAVSNKYFSNIHWCN) [reference compound]”, the “bacteriophage binding to immobilized D23 versus sUPAR” value in test [3] was “bind signficantly only to intact sUPAR”. The “effect on binding” value in test [1] was “reduce binding”. The “competition for uPA1–48 binding to sUPAR / receptor binding activity (in words)” value in [2] was “compete directly for uPA1–48 binding”.
For “vitronectin: vitronectin purified from human plasma”, the “effect on binding” value in [1] was “blocked”. Further, the “reduction of bacteriophage binding to the uPA1–48:suPAR complex” value in test [9] is 5–10 fold.

Values taken from patent US7094752B2 (Chiron Corporation, priority 1997, dated 2006).
